Structures can show the parent of a compound that is named as a salt.

The first data set is described as follows: RP, Waters ACQUITY UPLC HSS T3, 100 × 2.1 mm, 50 °C; A: water + 0.1% formic acid, pH 3; B: 30% methanol + 70% acetonitrile + 0.1% formic acid, pH 3; gradient (min/%B) 0/5 1/8 2/15 3/40 4/70 4.5/100 5/100 6.4/100 6.6/5 6.8/5 7/5. As to conditions: stereoisomer not certain.
On to `O=C(O)CNC(=O)C=Cc1c[nH]c2ccccc12` [Indole-3-acryloylglycine], for which the LC retention time amounted to 3.56 min. Same read-out and setting: next, `Cn1c(=O)[nH]c(=O)c2[nH]cnc21` [3-Methylxanthine]: 1.45 min. Same read-out and setting: next, `Cc1ccc(OC2OC(C(=O)O)C(O)C(O)C2O)cc1` (stereo not drawn) [p-Cresol glucuronide]: 3.44 min; `O=C(O)Cc1ccccc1O` [2-Hydroxyphenylacetic acid]: 3.4 min; `O=C(O)C(O)Cc1ccc(O)cc1` (stereo not drawn) [p-Hydroxyphenyllactic acid]: 2.66 min.

Regarding `O=C(O)C1OC(Oc2c[nH]c3ccccc23)C(O)C(O)C1O` (stereo not drawn) [Indoxyl beta-d-glucuronide], the LC retention time worked out at 2.94 min. The same measure, in the same setting: with `O=S(=O)(O)Oc1c[nH]c2ccccc12` [3-Indoxyl sulfate] the figure was 2.67 min; with `CC(C)(CO)C(O)C(=O)NCCC(=O)O` (racemic) [DL-Pantothenic acid], 2 min. Take `O=C(OC1OC(C(=O)O)C(O)C(O)C1O)c1c[nH]c2ccccc12` (stereo not drawn) [3-Indole carboxylic acid glucuronide]: the LC retention time is 3.36 min.

On to `Cc1ccc(OS(=O)(=O)O)cc1` [p-Cresol sulfate], for which the LC retention time stood at 3.38 min.

Take `O=C(O)C(O)Cc1c[nH]c2ccccc12` (stereo not drawn) [3-Indolelactic acid]: the LC retention time was determined as 3.53 min.

As to `c1coc(CNc2ncnc3nc[nH]c23)c1` [Kinetin], the LC retention time is 3.03 min. The same measure, in the same setting: with `Cc1ccccc1OS(=O)(=O)O` [o-Cresol sulfate] the figure was 3.38 min; with `Cn1c(=O)[nH]c2[nH]c(=O)[nH]c2c1=O` [1-Methyluric acid], 1.27 min; with `NCCc1ccc(O)c(O)c1` [Dopamine], 0.706 min.

On to `NCCc1ccc(OS(=O)(=O)O)c(O)c1` [Dopamine 4-O-sulfate], for which the LC retention time came out at 0.606 min.

As for `O=C(Cc1c[nH]c2ccccc12)OC1OC(C(=O)O)C(O)C(O)C1O` (stereo not drawn) [Indole-3-acetic acid glucuronide], the LC retention time amounted to 3.46 min. On the same count and under the same terms, with `O=C1OC(C(O)CO)C(O)=C1O` (stereo not drawn) [Ascorbic acid] the figure was 0.601 min; with `Cc1cccc(OS(=O)(=O)O)c1` [m-Cresol sulfate], 3.44 min. With `Cc1ccccc1C(=O)NCC(=O)O` [2-Methylhippuric acid], the LC retention time stood at 3.4 min. Same read-out and setting: with `CC(O)C1NC(=O)C2CCCN2C1=O` (stereo not drawn) [Cyclo(Pro-Thr)] the figure was 1.54 min; with `O=C(O)c1ccc[nH]1` [Pyrrole-2-carboxylic acid], 2.61 min; with `CS(=O)CCCN=C=S` (stereo not drawn) [Iberin], 3.25 min.

With `O=C(O)Cc1c[nH]c2ccc(O)cc12` [5-Hydroxyindole-3-acetic acid], the LC retention time came to 2.86 min. On the same count and under the same terms, next, `CC(=O)CCC(=O)O` [Levulinic acid]: 1.46 min.

A short description of another data set: RP, Waters ACQUITY UPLC BEH C18, 100 × 2.1 mm, 1.7 µm, 65 °C, 0.4 mL/min, estimated dead time 0.55 min; A: water + 0.1% formic acid, pH 3; B: 80% acetonitrile + 20% acetone + 0.1% formic acid, pH 3; gradient (min/%B) 0/0 5/100 5.5/0 6/0. To be noted: stereoisomer not certain.
`O=C(O)CNC(=O)C=Cc1c[nH]c2ccccc12` [Indole-3-acryloylglycine]: the LC retention time was 2.13 min. As for `Cn1c(=O)[nH]c(=O)c2[nH]cnc21` [3-Methylxanthine], the LC retention time was 1.3 min. As to `Cc1ccc(OC2OC(C(=O)O)C(O)C(O)C2O)cc1` (stereo not drawn) [p-Cresol glucuronide], the LC retention time is 2.01 min. For the molecule `O=C(O)C1OC(Oc2c[nH]c3ccccc23)C(O)C(O)C1O` (stereo not drawn) [Indoxyl beta-d-glucuronide], the LC retention time is 1.73 min.

In the case of `O=S(=O)(O)Oc1c[nH]c2ccccc12` [3-Indoxyl sulfate], the LC retention time was 1.68 min. The same measure, in the same setting: next, `O=C(OC1OC(C(=O)O)C(O)C(O)C1O)c1c[nH]c2ccccc12` (stereo not drawn) [3-Indole carboxylic acid glucuronide]: 1.89 min; `Cc1ccc(OS(=O)(=O)O)cc1` [p-Cresol sulfate]: 1.99 min. On the same count and under the same terms, with `O=C(O)C(O)Cc1c[nH]c2ccccc12` (stereo not drawn) [3-Indolelactic acid] the figure was 2.14 min; with `c1coc(CNc2ncnc3nc[nH]c23)c1` [Kinetin], 1.7 min; with `Cc1ccccc1OS(=O)(=O)O` [o-Cresol sulfate], 1.93 min. With `Cn1c(=O)[nH]c2[nH]c(=O)[nH]c2c1=O` [1-Methyluric acid], the LC retention time was 1.29 min. With `NCCc1ccc(OS(=O)(=O)O)c(O)c1` [Dopamine 4-O-sulfate], the LC retention time was 1.3 min. Still for that read-out and setting: next, `Cc1cccc(OS(=O)(=O)O)c1` [m-Cresol sulfate]: 2 min; `Cc1ccccc1C(=O)NCC(=O)O` [2-Methylhippuric acid]: 1.96 min. Turning to `CC(O)C1NC(=O)C2CCCN2C1=O` (stereo not drawn) [Cyclo(Pro-Thr)], the LC retention time is 1.37 min. Turning to `O=C(O)c1ccc[nH]1` [Pyrrole-2-carboxylic acid], the LC retention time was 1.68 min. Still for that read-out and setting: with `O=C(O)Cc1c[nH]c2ccc(O)cc12` [5-Hydroxyindole-3-acetic acid] the figure was 1.61 min. Same read-out and setting: with `CC(=O)CCC(=O)O` [Levulinic acid] the figure was 1.4 min.

The next data set in a line: RP, Agilent ZORBAX Eclipse XDB-C18, 100 × 2.1 mm, 1.8 µm, 50 °C, 0.4 mL/min, estimated dead time 0.55 min; A: water + 0.1% formic acid, pH 3; B: methanol + 0.1% formic acid, pH 3; gradient (min/%B) 0/2 10/100 14.5/100 14.51/2 16.5/2. To be noted: stereoisomer not certain.
Consider `O=C(O)Cc1ccccc1O` [2-Hydroxyphenylacetic acid], for which the LC retention time is 3.82 min. On the same count and under the same terms, next, `O=C(O)C(O)Cc1ccc(O)cc1` (stereo not drawn) [p-Hydroxyphenyllactic acid]: 2.73 min. For the molecule `CC(C)(CO)C(O)C(=O)NCCC(=O)O` (racemic) [DL-Pantothenic acid], the LC retention time is 2.42 min.

Another data set is described as follows: RP, Waters ACQUITY UPLC HSS T3, 100 × 2.1 mm, 1.8 µm, 30 °C, 0.4 mL/min, estimated dead time 0.55 min; A: water + 0.1% formic acid, pH 3; B: acetonitrile + 0.1% formic acid, pH 3; gradient (min/%B) 0/0 2/0 15/100 22/100 22.1/0 26/0. As to conditions: stereoisomer not certain.
Regarding `O=C(O)Cc1ccccc1O` [2-Hydroxyphenylacetic acid], the LC retention time is 9.13 min. Still for that read-out and setting: next, `NCCc1ccc(O)c(O)c1` [Dopamine]: 1.3 min.

The record behind these values is the RepoRT retention time repository (doi:10.1016/j.foodchem.2021.129757).
